In patent US5530126A, “Process for the preparation of substituted 6-(pyrazol-3yl)-1,4-benzoxazin-3-ones” (Monsanto Company, priority 1994, dated 1996):

Key:
Assay type in all cases: in vivo
Cocklebur [1] = test: Post-emergence herbicide test; settings: Xanthium strumarium, read-out: % plant inhibition (Cobu); for inhibition at 1120 g/ha: 1.12 kg/ha; for inhibition at 11210 g/ha: 11.21 kg/ha
Summary of the method: (§1)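 Percent growth inhibition against untreated plants, assessed roughly 11 days (range 10–14) after treatment and in some cases at about 25 days. Foliar application was to two- to three-week-old greenhouse plants at 1870 L/Ha spray volume.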

Indian Mustard [2] = test: Post-emergence herbicide test; settings: Brassica juncea, read-out: % plant inhibition (Inmu); for inhibition at 1120 g/ha: 1.12 kg/ha; for inhibition at 11210 g/ha: 11.21 kg/ha
Summary of the method: as §1

Downy Brome [3] = test: Post-emergence herbicide test; settings: Bromus tectorum, read-out: % plant inhibition (Dobr); for inhibition at 1120 g/ha: 1.12 kg/ha; for inhibition at 11210 g/ha: 11.21 kg/ha
Summary of the method: as §1

Yellow nutsedge [4] = test: Post-emergence herbicide test; settings: Cyperus, read-out: % plant inhibition (Yens); for inhibition at 1120 g/ha: 1.12 kg/ha; for inhibition at 11210 g/ha: 11.21 kg/ha
Summary of the method: as §1

Seedling johnsongrass [5] = test: Post-emergence herbicide test; settings: Sorghum halepense, read-out: % plant inhibition (Sejg); for inhibition at 1120 g/ha: 1.12 kg/ha; for inhibition at 11210 g/ha: 11.21 kg/ha
Summary of the method: as §1

Barnyardgrass [6] = test: Post-emergence herbicide test; settings: Echinochloa crus-galli, read-out: % plant inhibition (Bygr); for inhibition at 1120 g/ha: 1.12 kg/ha; for inhibition at 11210 g/ha: 11.21 kg/ha
Summary of the method: as §1

Wild buckwheat [7] = test: Post-emergence herbicide test; settings: Fallopia convolvulus, read-out: % plant inhibition (Wibw); for inhibition at 1120 g/ha: 1.12 kg/ha; for inhibition at 11210 g/ha: 11.21 kg/ha
Summary of the method: as §1

Morningglory [8] = test: Post-emergence herbicide test; settings: Ipomoea, read-out: % plant inhibition (Mogl); for inhibition at 1120 g/ha: 1.12 kg/ha; for inhibition at 11210 g/ha: 11.21 kg/ha
Summary of the method: as §1

Annual bluegrass [9] = test: Post-emergence herbicide test; settings: read-out: % plant inhibition (Anbg); for inhibition at 1120 g/ha: 1.12 kg/ha; for inhibition at 11210 g/ha: 11.21 kg/ha
Summary of the method: as §1

Velvetleaf [10] = test: Post-emergence herbicide test; settings: Abutilon theophrasti, read-out: % plant inhibition (Vele); for inhibition at 1120 g/ha: 1.12 kg/ha; for inhibition at 11210 g/ha: 11.21 kg/ha
Summary of the method: as §1

Cocklebur [11] = test: Pre-emergence herbicide test; settings: Xanthium strumarium, read-out: % plant inhibition (Cobu); for inhibition at 1120 g/ha: 1.12 kg/ha; for inhibition at 11210 g/ha: 11.21 kg/ha
Summary of the method: (§2)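 Known dose of active, dissolved or suspended in acetone or water, delivered onto seed bed prior to emergence and buried under untreated topsoil. Greenhouse incubation with watering from below. Percentage inhibition rated 10-14 days after seeding.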

Indian Mustard [12] = test: Pre-emergence herbicide test; settings: Brassica juncea, read-out: % plant inhibition (Inmu); for inhibition at 1120 g/ha: 1.12 kg/ha; for inhibition at 11210 g/ha: 11.21 kg/ha
Summary of the method: as §2

Downy Brome [13] = test: Pre-emergence herbicide test; settings: Bromus tectorum, read-out: % plant inhibition (Dobr); for inhibition at 1120 g/ha: 1.12 kg/ha; for inhibition at 11210 g/ha: 11.21 kg/ha
Summary of the method: as §2

Yellow nutsedge [14] = test: Pre-emergence herbicide test; settings: Cyperus, read-out: % plant inhibition (Yens); for inhibition at 1120 g/ha: 1.12 kg/ha; for inhibition at 11210 g/ha: 11.21 kg/ha
Summary of the method: as §2

Seedling johnsongrass [15] = test: Pre-emergence herbicide test; settings: Sorghum halepense, read-out: % plant inhibition (Sejg); for inhibition at 1120 g/ha: 1.12 kg/ha; for inhibition at 11210 g/ha: 11.21 kg/ha
Summary of the method: as §2

Barnyardgrass [16] = test: Pre-emergence herbicide test; settings: Echinochloa crus-galli, read-out: % plant inhibition (Bygr); for inhibition at 1120 g/ha: 1.12 kg/ha; for inhibition at 11210 g/ha: 11.21 kg/ha
Summary of the method: as §2

Wild buckwheat [17] = test: Pre-emergence herbicide test; settings: Fallopia convolvulus, read-out: % plant inhibition (Wibw); for inhibition at 1120 g/ha: 1.12 kg/ha; for inhibition at 11210 g/ha: 11.21 kg/ha
Summary of the method: as §2

Morningglory [18] = test: Pre-emergence herbicide test; settings: Ipomoea, read-out: % plant inhibition (Mogl); for inhibition at 1120 g/ha: 1.12 kg/ha; for inhibition at 11210 g/ha: 11.21 kg/ha
Summary of the method: as §2

Annual bluegrass [19] = test: Pre-emergence herbicide test; settings: read-out: % plant inhibition (Anbg); for inhibition at 1120 g/ha: 1.12 kg/ha; for inhibition at 11210 g/ha: 11.21 kg/ha
Summary of the method: as §2

Velvetleaf [20] = test: Pre-emergence herbicide test; settings: Abutilon theophrasti, read-out: % plant inhibition (Vele); for inhibition at 1120 g/ha: 1.12 kg/ha; for inhibition at 11210 g/ha: 11.21 kg/ha
Summary of the method: as §2

SMILES	inhibition at 1120 g/ha (Cocklebur [1]) [%]	inhibition at 1120 g/ha (Indian Mustard [2]) [%]	inhibition at 1120 g/ha (Downy Brome [3]) [%]	inhibition at 1120 g/ha (Yellow nutsedge [4]) [%]	inhibition at 1120 g/ha (Seedling johnsongrass [5]) [%]	inhibition at 1120 g/ha (Barnyardgrass [6]) [%]	inhibition at 1120 g/ha (Wild buckwheat [7]) [%]	inhibition at 1120 g/ha (Morningglory [8]) [%]	inhibition at 1120 g/ha (Annual bluegrass [9]) [%]	inhibition at 1120 g/ha (Velvetleaf [10]) [%]	inhibition at 1120 g/ha (Cocklebur [11]) [%]	inhibition at 1120 g/ha (Indian Mustard [12]) [%]	inhibition at 1120 g/ha (Downy Brome [13]) [%]	inhibition at 1120 g/ha (Yellow nutsedge [14]) [%]	inhibition at 1120 g/ha (Seedling johnsongrass [15]) [%]	inhibition at 1120 g/ha (Barnyardgrass [16]) [%]	inhibition at 1120 g/ha (Wild buckwheat [17]) [%]	inhibition at 1120 g/ha (Morningglory [18]) [%]	inhibition at 1120 g/ha (Annual bluegrass [19]) [%]	inhibition at 1120 g/ha (Velvetleaf [20]) [%]	also measured
CC(C)CCOC(=O)c1cc(-c2nn(C)c(C(F)(F)F)c2Cl)c(F)cc1Cl [Compound 141]	90	80	100	0	90	70	100	100	90	100	70	80	70	0	50	20	90	80	20	70	
CC(=NOCC(N)=O)c1cc(-c2nn(C)c(C(F)(F)F)c2Cl)c(F)cc1Cl [Compound 105]	20	30	0	20	20	20	100	40	30	80	10	80	40	20	60	70	80	80	0	90	
COCOc1cc(-c2nn(C)c(C(F)(F)F)c2Cl)c(F)cc1Cl [Compound 308, 4-Chloro-3-(4-chloro-2-fluoro-5-(methoxy-methoxy)phenyl)-1-methyl-5-(trifluoromethyl)-1H-pyrazole]	90	90	100	20	100	100	100	90	100	100	80	100	100	40	100	100	100	100	100	100	
Cn1nc(-c2cc(C3OCCO3)c(Cl)cc2F)c(Cl)c1C(F)(F)F [Compound 100, 4-chloro-3-(4-chloro-5-(1,3-dioxolan-2-yl)-2-fluorophenyl)-1-methyl-5-(trifluoromethyl)-1H-pyrazole]	80	80	100	20	100	100	100	100	100	100	20	100	100	0	90	70	100	80	90	100	
Cn1nc(-c2cc(C=O)c(Cl)cc2F)c(Cl)c1C(F)(F)F [Compound 133, 2-chloro-5-[4-chloro-1-methyl-5-(trifluoromethyl)-1H-pyrazol-3-yl]-4-fluorobenzaldehyde]	100	40	20	40	50	50	80	100	0	100	40	100	0	20	80	80	70	70	20	100	
CCC(C)COC(=O)c1cc(-c2nn(C)c(C(F)(F)F)c2Cl)c(F)cc1Cl (centres unmarked) [Compound 140]	100	90	100	10	100	100	90	100	100	100	80	70	60	0	70	0	70	70	30	90	
Cn1nc(-c2ccc([N+](=O)[O-])cc2)c(Cl)c1C(F)(F)F [Compound 81]																					inhibition at 11210 g/ha (Cocklebur [1]): 40%; inhibition at 11210 g/ha (Indian Mustard [2]): 10%; inhibition at 11210 g/ha (Downy Brome [3]): 10%; inhibition at 11210 g/ha (Yellow nutsedge [4]): 50%; inhibition at 11210 g/ha (Seedling johnsongrass [5]): 70%; inhibition at 11210 g/ha (Barnyardgrass [6]): 70%; inhibition at 11210 g/ha (Wild buckwheat [7]): 90%; inhibition at 11210 g/ha (Morningglory [8]): 60%; inhibition at 11210 g/ha (Annual bluegrass [9]): 0%; inhibition at 11210 g/ha (Velvetleaf [10]): 80%; inhibition at 11210 g/ha (Cocklebur [11]): 20%; inhibition at 11210 g/ha (Indian Mustard [12]): 20%; inhibition at 11210 g/ha (Downy Brome [13]): 80%; inhibition at 11210 g/ha (Yellow nutsedge [14]): 0%; inhibition at 11210 g/ha (Seedling johnsongrass [15]): 90%; inhibition at 11210 g/ha (Barnyardgrass [16]): 60%; inhibition at 11210 g/ha (Wild buckwheat [17]): 100%; inhibition at 11210 g/ha (Morningglory [18]): 30%; inhibition at 11210 g/ha (Annual bluegrass [19]): 60%; inhibition at 11210 g/ha (Velvetleaf [20]): 90%
C#CCOc1cc(-c2c(Cl)c(C(F)(F)F)nn2C)c(F)cc1Cl [Compound 76]	40	70	30	10	40	50	100	50	40	90	20	60	10	0	0	0	100	40	10	50	
CCOC(=O)C(C)=Cc1cc(-c2nn(C)c(C(F)(F)F)c2Cl)c(F)cc1Cl [Compound 127]	100	100	80	20	100	60	100	100	20	100	20	90	0	0	20	30	100	70	0	100	
COc1cc(-c2c(Cl)c(C(F)(F)F)nn2C)c(F)cc1N [Compound 73]																					inhibition at 11210 g/ha (Cocklebur [1]): 10%; inhibition at 11210 g/ha (Indian Mustard [2]): 20%; inhibition at 11210 g/ha (Downy Brome [3]): 0%; inhibition at 11210 g/ha (Yellow nutsedge [4]): 0%; inhibition at 11210 g/ha (Seedling johnsongrass [5]): 0%; inhibition at 11210 g/ha (Barnyardgrass [6]): 0%; inhibition at 11210 g/ha (Wild buckwheat [7]): 20%; inhibition at 11210 g/ha (Morningglory [8]): 0%; inhibition at 11210 g/ha (Annual bluegrass [9]): 0%; inhibition at 11210 g/ha (Velvetleaf [10]): 20%; inhibition at 11210 g/ha (Cocklebur [11]): 0%; inhibition at 11210 g/ha (Indian Mustard [12]): 20%; inhibition at 11210 g/ha (Downy Brome [13]): 0%; inhibition at 11210 g/ha (Yellow nutsedge [14]): 0%; inhibition at 11210 g/ha (Seedling johnsongrass [15]): 0%; inhibition at 11210 g/ha (Barnyardgrass [16]): 0%; inhibition at 11210 g/ha (Wild buckwheat [17]): 0%; inhibition at 11210 g/ha (Morningglory [18]): 0%; inhibition at 11210 g/ha (Annual bluegrass [19]): 0%; inhibition at 11210 g/ha (Velvetleaf [20]): 50%
